# Results as given in patent publication US5721107A, “Antibodies to G protein coupled glutamate receptors” (priority 1995, dated 1998).
# Where two headings read alike, the source gives them in different places.
# Experiments:
# [1] = system: glutamate G protein coupled receptor; assay: Voltage-clamp assay of injected oocytes, inhibition of glutamic acid-evoked current by putative antagonist; format: cell-based, rat; details: antagonist 1 mM
# Protocol: Voltage clamp assays were also carried out on injected oocytes to measure the inhibition by the putative glutamate G protein coupled receptor antagonist, 2-amino-3-phosphonopropionic acid (AP3).
# [2] = target: T1, GluG R encoded by clone 45-A (Rattus norvegicus, UniProt P23385); format: cell-based; details: normalized to 100 μM L-glutamate
# T1 construct: expressed in transfected cells; host or cells: Xenopus oocytes injected with in vitro transcribed RNA of clone 45-A (cDNA in pVEGT')
# T1 sequence (P23385 33-1199): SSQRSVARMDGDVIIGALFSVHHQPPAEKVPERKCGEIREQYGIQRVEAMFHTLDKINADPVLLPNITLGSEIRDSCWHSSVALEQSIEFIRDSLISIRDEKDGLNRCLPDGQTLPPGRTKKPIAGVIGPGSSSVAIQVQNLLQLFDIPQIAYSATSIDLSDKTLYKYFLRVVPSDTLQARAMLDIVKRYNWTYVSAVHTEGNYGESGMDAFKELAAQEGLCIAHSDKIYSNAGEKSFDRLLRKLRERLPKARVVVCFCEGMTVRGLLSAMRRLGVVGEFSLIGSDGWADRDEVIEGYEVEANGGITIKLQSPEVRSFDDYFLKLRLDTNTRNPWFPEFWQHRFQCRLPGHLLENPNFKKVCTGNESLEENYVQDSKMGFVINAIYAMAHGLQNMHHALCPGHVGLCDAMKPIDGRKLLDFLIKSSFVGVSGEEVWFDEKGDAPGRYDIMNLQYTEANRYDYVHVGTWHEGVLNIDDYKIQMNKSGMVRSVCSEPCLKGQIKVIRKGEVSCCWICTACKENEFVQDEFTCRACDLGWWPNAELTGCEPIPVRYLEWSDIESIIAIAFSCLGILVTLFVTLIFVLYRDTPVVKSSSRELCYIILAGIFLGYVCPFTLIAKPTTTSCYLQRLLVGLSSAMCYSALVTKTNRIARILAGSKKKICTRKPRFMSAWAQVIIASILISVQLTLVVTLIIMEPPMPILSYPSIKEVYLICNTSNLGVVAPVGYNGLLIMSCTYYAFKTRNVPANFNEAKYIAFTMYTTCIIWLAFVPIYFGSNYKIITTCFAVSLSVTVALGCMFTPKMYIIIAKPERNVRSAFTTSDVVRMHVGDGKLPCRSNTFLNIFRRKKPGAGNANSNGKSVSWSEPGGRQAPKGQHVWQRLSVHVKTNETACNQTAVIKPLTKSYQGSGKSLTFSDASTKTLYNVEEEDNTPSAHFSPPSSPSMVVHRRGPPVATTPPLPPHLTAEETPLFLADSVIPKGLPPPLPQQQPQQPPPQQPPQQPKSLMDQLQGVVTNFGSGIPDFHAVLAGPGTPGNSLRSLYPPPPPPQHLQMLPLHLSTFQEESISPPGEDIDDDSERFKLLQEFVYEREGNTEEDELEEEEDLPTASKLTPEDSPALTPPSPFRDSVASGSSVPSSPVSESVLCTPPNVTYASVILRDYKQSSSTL
# [3] = system: rat G protein coupled glutamate receptor; assay: Competition of tritiated glutamic acid binding to membrane preparations of transfected BHK cells; details: plus and minus quisqualate, 30 minutes, room temperature
# Protocol: Transfected cell lines expressing GluG R were identified by the binding of ^3 H-glutamate to membrane preparations from transfected cells. Cell lines expressing low to moderate levels of GluG R are used to set up functional screening assays.
# Clones of BHK 570 and BHK TK^- ts13 cells expressing the rat G protein coupled glutamate receptor cDNA were plated in two or three 150 mm maxi-plates culture dishes and were grown to confluency. The cells from each plate were scraped in 5 ml of PBS (phosphate buffered saline, Sigma Chemical Co., St. Louis, Mo.), which was pre-chilled to 4° C. The cells were removed to a chilled centrifuged tube, and the plates were each rinsed with 5 ml of chilled PBS and pooled with the cells. The chilled tubes were spun at 1,000 rpm for two minutes, and the supernatant was discarded. The cells were frozen at either -70° C. or on dry ice. In some cases, the cells were left overnight at -70° C. […] The filters were dried in a microwave oven and counted in a […].
# Protein determinations were carried out using a Coomassie Blue-based assay from Pierce Chemical Company (Rockford, Ill.) under conditions set forth by the manufacturer. One hundred microliters of undiluted cell homogenate or BSA standard was added to 2 ml of reagent and the optical density was measured at 595 nm. […]
# GluG R = assay: Voltage-clamp response to quisqualate of oocytes injected with RNA from a subfractionated rat cerebellum cDNA library pool; format: cell-based; details: RNA from subfractionated pool of 14,000 colonies; approximately 100 ng RNA per oocyte; estimated from digital panel meter
# Protocol: Plasmid DNA from plates 25 to 32 were cesium chloride banded and transcribed into RNA as described above along with the positive parent pool Z99-25-32. Oocytes were injected with the RNA and voltage clamp assays, carried out as described above, identified pools Z104-25 and Z111-32 as being weakly positive, Z106-27 and Z109-30 as intermediately positive, and Z108-29 and Z110-31 as the most positive. The pool resulting in Z110-31 was chosen for further subdivision.
# To confirm the result, plasmid DNA from clone #45 was prepared, transcribed and assayed in oocytes as described above. […] FIG. 2 illustrates the data taken from voltage-clamp recordings at several stages in the subfractionation of the cerebellum library. […] The peak current was truncated by the chart recorder, but the actual peak current (estimated from a digital panel meter) was approximately 1300 nA.
# [4] = 100 μM, saturating concentration
smiles,measurement,setting,value
"NC(CP(=O)(O)O)C(=O)O (racemic) [DL-AP3, 2-amino-3-phosphonopropionic acid]","current evoked by 10 μM glutamic acid, reduced to % of the control",[1],59.3±7.3 % of the control
"Cc1onc(O)c1CC(N)C(=O)O (stereo not drawn) [AMPA, α-amino-3-hydroxy-5-methyl-isoxazole-4-propionic acid]",response of oocytes to L-glutamic acid analog (effectiveness),[2]; [4],ineffective
"NC(CCP(=O)(O)O)C(=O)O (centres unmarked) [APB, 2-amino-4-phosphonobytyric acid]",response of oocytes to L-glutamic acid analog (effectiveness),[2]; [4],ineffective
"CN[C@H](CC(=O)O)C(=O)O [NMDA, N-methyl-D-aspartic acid]",response of oocytes to L-glutamic acid analog (effectiveness),[2]; 100 μM NMDA+10 μM glycine,ineffective
"N[C@@H](Cn1oc(=O)[nH]c1=O)C(=O)O [Quisqualic acid, quisqualic acid]",competitive binding to glutamate receptor expressed by transfected BHK cells,[3],able to competitively bind the glutamate receptor
same,peak current in response to quisqualate,GluG R,approximately 1300 nA
N[C@@H](CC(=O)O)C(=O)O [aspartic acid],response of oocytes to L-glutamic acid analog (effectiveness),"[2]; 1 mM, saturating concentration",ineffective
C=C(C)[C@H]1CN[C@H](C(=O)O)[C@H]1CC(=O)O [kainic acid],response of oocytes to L-glutamic acid analog (effectiveness),"[2]; 1 mM, saturating concentration",ineffective
